Assay results from US20070161581A1, “Novel aminoglycoside antibiotics effective against methicillin resistant staphylococcus auerus (mrsas)” (priority 2004, published 2007).
≈ marks a conversion by molar mass, not a printed value.

How the values were obtained:
[1] = test system: MRSA-HR; test: Antimicrobial activity, MIC by agar plate dilution method against MRSA-HR; format: cell-based, methicillin resistant Staphylococcus aureus; details: Staphylococcus aureus, read-out: minimal inhibitory concentration (MIC) against MRSA-HR
Method: (§1) The minimal inhibitory concentration (MIC, μg/mL) against MRSAs (MRSA-HR and MRSA-LR) were measured for typical comounds of novel aminoglycoside antibiotic derivatives described in the Examples (Example 1, Example 2, Example 9, Example 13, Example 18, Example 24, Example 44, Example 45, Example 48, Example 49, Example 51, Example 52, Example 53, Example 54, and Example 76) by an agar plate dilution method based on the method based on the JAPANESE SOCIETY OF CHEMOTHERAPY. As a result, the MIC value of the compounds described in the Examples was not more than 8 against MRSA-HR and not more than 4 against MRSA-LR. The same test was carried out for arbekacin described in Japanese Patent Laid-Open No. 164696/1980.

[2] = test system: MRSA-LR; test: Antimicrobial activity, MIC by agar plate dilution method against MRSA-LR; format: cell-based, methicillin resistant Staphylococcus aureus; details: Staphylococcus aureus, read-out: minimal inhibitory concentration (MIC) against MRSA-LR
Method: as §1

[3] = test system: P. aeruginosa PAO1; test: Antimicrobial activity, MIC against P. aeruginosa PAO1; format: cell-based; details: Pseudomonas aeruginosa, read-out: minimal inhibitory concentration (MIC) against P. aeruginosa PAO1

Row | Structure (SMILES) | MIC [1] | MIC [2] | MIC [3]
1 | NCC[C@H](O)C(=O)NC1C[C@H](N)C(O[C@H]2OC(CN)C=CC2N)C(O)[C@H]1O[C@H]1OC(CO)[C@@H](O)C(N)C1O (some centres unmarked) [Example 44, 3′,4′-didehydro-5-epiarbekacin] | ≤ 8 µg/mL | ≤ 4 µg/mL | ≤ 4 µg/mL
2 | NCC[C@H](O)C(=O)NC1C[C@H](N)C(O[C@H]2OC(CN)C=CC2N)C(F)[C@H]1O[C@H]1OC(CO)[C@@H](O)C(N)C1O (some centres unmarked) [Example 45, 5-Deoxy-3′,4′-didehydro-5-epifluoroarbekacin] | ≤ 8 µg/mL | ≤ 4 µg/mL | ≤ 4 µg/mL
3 | NCC[C@H](O)C(=O)N[C@@H]1C[C@H](N)[C@@H](O[C@H]2O[C@H](CN)CC[C@H]2N)[C@H](O)[C@H]1O[C@H]1O[C@H](CO)[C@@H](O)[C@H](N)[C@H]1O [arbekacin, (S)-1-N-(4-amino-2-hydroxybutyroyl)dibekacin, reference compound] | 64 µg/mL (≈ 116 µM) | 16 µg/mL (≈ 29 µM) | 
4 | NCC[C@H](O)C(=O)NC1C[C@H](N)C(O[C@H]2OC(CN)CCC2N)C(N)[C@H]1O[C@H]1OC(CO)[C@@H](O)C(N)C1O (some centres unmarked) [Example 18, 5-Deoxy-5-epiaminoarbekacin] | ≤ 8 µg/mL | ≤ 4 µg/mL | ≤ 4 µg/mL
5 | NCC[C@H](O)C(=O)NC1C[C@H](N)C(O[C@H]2OC(CN)CCC2N)C(O)[C@H]1O[C@H]1OC(C(O)CN)[C@@H](O)C(N)C1O (some centres unmarked) [Example 76, 6″-Aminomethylarbekacin] | ≤ 8 µg/mL | ≤ 4 µg/mL | ≤ 4 µg/mL
6 | NCC[C@H](O)C(=O)NC1C[C@H](N)C(O[C@H]2OC(CN)C=CC2N)C(N)[C@H]1O[C@H]1OC(CO)[C@@H](O)C(N)C1O (some centres unmarked) [Example 48, 5-Deoxy-3′,4′-didehydro-5-epiaminoarbekacin] | ≤ 8 µg/mL | ≤ 4 µg/mL | ≤ 4 µg/mL
7 | NCC[C@H](O)C(=O)NC1C[C@H](N)C(O[C@H]2OC(CN)C=CC2N)C(O)[C@H]1O[C@H]1OC(CO)[C@H](O)C(N)C1O (some centres unmarked) [Example 51, 3′,4′-Didehydro-5,4″-diepiarbekacin] | ≤ 8 µg/mL | ≤ 4 µg/mL | ≤ 4 µg/mL
8 | NCCNC1C(O[C@H]2OC(CN)CCC2N)[C@@H](N)CC(NC(=O)[C@@H](O)CCN)[C@@H]1O[C@H]1OC(CO)[C@@H](O)C(N)C1O (stereo partly drawn) [Example 24, 5-Deoxy-5-epi(2-aminoethyl)aminoarbekacin] | ≤ 8 µg/mL | ≤ 4 µg/mL | ≤ 4 µg/mL
9 | NCC[C@H](O)C(=O)NC1C[C@H](N)C(O[C@H]2OC(CN)CCC2N)C(F)[C@H]1O[C@H]1OC(CO)[C@H](O)C(N)C1O (stereo partly drawn) [Example 2, 5-Deoxy-4″-epi-5-epifluoroarbekacin] | ≤ 8 µg/mL | ≤ 4 µg/mL | ≤ 4 µg/mL
10 | NCC[C@H](O)C(=O)NC1C[C@H](N)C(O[C@H]2OC(CN)CCC2N)C(O)[C@H]1O[C@H]1OC(CO)[C@@H](O)C(N)C1O (some centres unmarked) [Example 13, 5-Epiarbekacin] | ≤ 8 µg/mL | ≤ 4 µg/mL | ≤ 4 µg/mL
11 | NCC1CCC(N)[C@@H](OC2C(O)[C@@H](O[C@H]3OC(CO)[C@H](O)C(N)C3O)C(NC(=O)[C@@H](O)CN)C[C@@H]2N)O1 (stereo partly drawn) [Example 9, 1-N-[(S)-(3-amino-2-hydroxypropanoyl)]-5,4″-diepidibekacin] | ≤ 8 µg/mL | ≤ 4 µg/mL | ≤ 4 µg/mL
12 | NCC[C@H](O)C(=O)NC1C[C@H](N)C(O[C@H]2OC(CN)CCC2N)C(O)[C@H]1O[C@H]1OC(CO)[C@H](O)C(N)C1O (some centres unmarked) [Example 1, 5,4″-diepiarbekacin] | ≤ 8 µg/mL | ≤ 4 µg/mL | ≤ 4 µg/mL
13 | NCC[C@H](O)C(=O)NC1C[C@H](N)C(O[C@H]2OC(CN)C=CC2N)C(F)[C@H]1O[C@H]1OC(CO)[C@H](O)C(N)C1O (stereo partly drawn) [Example 52, 5-Deoxy-3′,4′-didehydro-4″-epi-5-epifluoroarbekacin] | ≤ 8 µg/mL | ≤ 4 µg/mL | ≤ 4 µg/mL
14 | NCC[C@H](O)C(=O)NC1C[C@H](N)C(O[C@H]2OC(CN)C=CC2N)C(O)[C@H]1O[C@H]1OC(CO)CC(N)C1O (some centres unmarked) [Example 54, 4″-Deoxy-3′,4′-didehydro-5-epiarbekacin] | ≤ 8 µg/mL | ≤ 4 µg/mL | ≤ 4 µg/mL
15 | NCC[C@H](O)C(=O)NC1C[C@H](N)C(O[C@H]2OC(CN)C=CC2N)C(N)[C@H]1O[C@H]1OC(CO)[C@H](O)C(N)C1O (stereo partly drawn) [Example 53, 5-Deoxy-3′,4′-didehydro-4″-epi-5-epiaminoarbekacin] | ≤ 8 µg/mL | ≤ 4 µg/mL | ≤ 4 µg/mL
